Assay results published in US11523610B2, “Regulating plant growth using a diapocarotenoid” (King Abdullah University of Science and Technology, priority 2018, dated 2022).

Key:
Format in all cases: in vivo
[1] = tested on: Arabidopsis seedlings (anchor roots after RAM excision); experiment: ANR formation after root apical meristem excision (ANR-RE)
From the text: (§1) ANRs were counted in seedlings vertically grown on half strength MS (with 0.5% sucrose +1% agar, 0.5 g/L MES, pH 5.7) media 8 days post-stratification (dps) using a dissection microscope. To investigate ANR formation after root apical meristems (RAM) excision (ANR-RE), RAM of seedlings were excised using sterile scalpels at 5 dps and then grown for another 3 days prior to counting the number of emerged ANRs. RAM of seedlings were excised at 8 dps and then grown for another 3 days prior to counting the number of emerged LRs. For determining the effect of anchorene on lateral roots, the number of emerged lateral roots were counted using a dissection microscope at 8 dps. For primary root length measurements, seedlings were measured using the publicly available ImageJ software (downloaded from rsbweb.nih.gov/ij/) after taking digital photographs. For adventitious root assay, the number of emerged adventitious roots per plant were counted after 5 days of treatment on plates with or without anchorene.
ANR formation under carotenoid-deficient conditions was monitored to determine the role of endogenous carotenoids in ANR development. […] Therefore, ANR formation was monitored after RAM excision (ANR-RE) to stimulate ANR development. ANR measurements were used as an indicator of ANR formation capacity under different conditions. […] Norflurazon (NF) and 2-(4-chlorophenylthio)-triethylamine hydrochloride (CPTA), which block phytoene desaturation and lycopene cyclization, respectively were tested (FIG. 6A). The effect of D15, an inhibitor of CCDs was also investigated. Application of D15 to Arabidopsis seedlings is known to lead to an increase in carotenoid levels.

[2] = tested on: Arabidopsis collet transcriptome; experiment: RNA-Seq of collet transcriptome; conditions: collets
Method: For anchorene and NPA treatment, Col-0 seedlings were vertically grown on half MSO (with 0.5% sucrose+1% agar, 0.5 g/L MES, pH 5.7) plates supplemented with 20 μM anchorene or 1 μM NPA for 5 days. RAM excision treatment was applied by excising the RAM from 4.5-day old Col-0 seedlings, and then tissue was collected 12 hours after excision (5 DAG). About 2 mm of tissue at the collet site (see FIG. 11I) was collected at 5 DAG for all chemicals and physical treatment. Tissue from approximately 50 seedlings were used for each sample. Total RNA was extracted by Direct-zolTM RNA MiniPrep Plus (200 Preps) w/Zymo-Spin™ (ZYMO research). 100 ng total RNA were used for RNA Hi-seq 4000 (ILLUMINA). Each treatment includes three independent replicates.
Prior to the analysis of RNA-Seq data, the adaptor sequences and low-quality ends of sequenced reads were trimmed using Trimmomatic v0.32 and quality-checked using FastQC v0.11 (www.bioinformatics.babraham.ac.uk/projects/fastqc). To quantify the expression level of genes, the remaining reads were pseudo-aligned to the publicly available TAIR10 A. thaliana transcriptome (release 34) using kallisto v0.43.0. The estimated read counts and calculated transcripts per million (TPM) were subsequently passed to sleuth v0.28.1 for differential expression analysis. […] Gene ontology and KEGG pathway enrichment analyses were conducted using clusterProfiler and Pathview. RNA-Seq data can be accessed at NCBI via BioProject ID PRJNA489360.

maize = experiment: Maize hydroponic growth with anchorene
Method: FIGS. 20A-C show anchorene promotes root growth in maize according to one or more embodiments of the present disclosure. (A) represents the timeline for the hydroponic system for maize growing and anchorene treatment. […] (C) is a histogram quantifying the root and shoot length (cm) of maize seedlings with or without anchorene treatment
Arabidopsis is a dicot model plant. To test the effect of anchorene on monocot plant and crops, the biological functions of anchorene was evaluated on two important crops, rice and maize, under hydroponic conditions. Excitingly, a clear effect of anchorene on rice primary root and crown root growth (FIGS. 19B-E). A clear effect on shoot growth was not observed during this period, which might indicate anchorene specifically regulates root architecture. Similar effect was also examined in maize (FIGS. 20B-C). […] Root growth promoting not only could better anchor the plant, but also increase the volume of the plant root which will facilitate the water and nutrient absorption for the plant.

[3] = tested on: Arabidopsis seedlings (anchor roots); experiment: Anchor root (ANR) emergence/formation in seedlings without RAM excision; conditions: for seedlings forming ANRs: no RAM excision, 8 DAG
Method: Sterilized Col-0 and mutants seeds were kept at 4° C. in darkness for 3 days to stimulate seed germination, and then sown on half strength MSO plates (with 0.5% sucrose +1% agar, 0.5g/L MES, pH 5.7) supplemented with the indicated chemicals as described below or in the Figures. Plates were vertically grown in PERCIVAL® growth chambers under long day (16 h light/8 h dark, 22° C., 60% relative humidity, light density: 4000 LUX) LED white light [HYPERIKON® 16 W LED Light Bulb A21, 16 W (100 W Equivalent), CRI92, 1620 Lumens, 4000K (Daylight Glow)] conditions. Light fluorescence rates were measured using a digital LUX meter (PEAKTECH® 5025).
as §1
Prior to the anchor root (ANR) measurements, seeds from 10 ecotypes (Po-0, Is-0, Wu-0, Col-0, Cvi-0, Hi-0, Ove-0, Sav-0, Ler and Kin-0) were harvested from plants grown in long-day photoperiod conditions (16h light/8 h darkness, 22° C., 60% humidity). Seeds of all 10 ecotypes were surfaced sterilized and incubated in sterile water at 4° C. for 8 days, for uniform germination. Natural ANR emergence and ANRC was measured as described above (Anchor root assays) for each ecotype. 20 μM anchorene was used to test the responses of the Po-0 and Is-0 ecotypes to anchorene.
Excision of the root apical meristems (RAM) triggers ANR formation (FIGS. 3C-D). […] About 9% of control Col-0 seedlings developed ANRs under normal conditions, while approximately 50% formed ANRs upon RAM excision (FIGS. 4B-C). […] Higher anchorene concentrations (10 and 20 μM) enhanced this ratio to 97% and 100%, respectively (FIGS. 4B-C). There was also an increase in the number of seedlings that developed two ANRs from 0% in the untreated control to approximately 80% upon application of 20 μM anchorene (FIGS. 4B-C). Using a wide range of concentrations, a dose-response curve was established in the presence and absence of RAM excision. […] Thus, the promotion of ANRs is not caused by inhibiting primary root growth.

What does the source list for C\C(C=O)=C/C=C/C=C(\C)C=O [anchorene, 12,12′-diapocarotene-12,12′-dial]?
rescue of ANR-RE in carotenoid biosynthesis inhibitor treated seedlings ([1]; 20 μM anchorene simultaneous with 1 μM NF or 100 μM CPTA): blocked inhibition of ANR-RE; rescue of ANR-RE in NPA treated seedlings ([1]; 20 μM anchorene with 1 μM NPA): partially compensated; ANR formation in arf7arf19 double mutant ([1]; arf7arf19, 20 μM anchorene or after RAM excision): did not form any ANR; rescue of ANR-RE in psy mutant ([1]; psy mutant, 20 μM anchorene): restored wild-type ANR-RE; genes with opposite effects of RAM excision and anchorene treatment ([2]; 20 μM anchorene): 36 genes; genes with similar response to RAM excision and anchorene treatment ([2]; 20 μM anchorene): 1459 genes; overlapping genes on which NPA and anchorene exert the opposite effect ([2]; 20 μM anchorene, 1 μM NPA): 2791 (83%) genes; overlapping genes whose expression level is affected by NPA and anchorene ([2]; 20 μM anchorene, 1 μM NPA, 5 days): 3355 genes; effect on auxin biosynthesis genes ([2]; anchorene application): induction of many auxin biosynthesis genes; growth of primary root and lateral roots in maize (maize): greatly promoted; seedlings forming ANRs ([3]; 5 μM, control about 9%): 55%; seedlings forming ANRs ([3]; 10 μM): 97%; seedlings forming ANRs ([3]; 20 μM): 100%; seedlings that developed two ANRs ([3]; 20 μM, untreated control 0%): approximately 80%; ANR emergence in different Arabidopsis ecotypes ([3]; Col-0, Is-0 and Po-0, 20 μM anchorene): promotes ANR emergence; ANR formation ([3]; screen at 5 or 25 μM): promotion of ANR formation; dose-response of ANR formation ([3]; wide range of concentrations, in presence and absence of RAM excision (FIG. 3J)): dose dependent
